Test results: article PMC9858543, “Design, synthesis and evaluation of 2, 6, 8-substituted Imidazopyridine derivatives as potent PI3Kα inhibitors” (Journal of Enzyme Inhibition and Medicinal Chemistry, 2023)
Where two headings read alike, the source gives them in different places.

Tests used:
NCI-H460 = assay: Cell proliferation assay (CellTiter-Glo), NCI-H460; type: cell-based; settings: Homo sapiens, 72 h exposure, mean ± SD of two experiments
Method: (§1) Given the desirable enzyme activity profile, these compounds were further assayed for their antiproliferative activities against five independent human tumour cell line collections harbouring PIK3CA mutation, including human ovarian cancer cell line SKOV-3, human breast cancer T47D and MCF-7, human lung cancer H1975 and H460. […] In general, the cellular activity of tested derivatives corrected with their effects on kinase activity.
(§2) All target compounds were evaluated for antiproliferative potency against SKOV-3, T47D,NCI-H1975, NCI-H460,and MCF-7 tumour cell lines using a CellTiter-Glo® Luminescent Cell Viability Assay. The human tumour cell lines used were obtained from the ATCC or Shanghai ZhongQiaoXinZhou Biotech. All the mediums and FBS were Gibco. T47D, H1975 and NCI-H460 tumour cells were cultured in RPMI1640 medium supplemented with 10% FBS. SKOV-3 was cultured in McCoy’s 5 A medium supplemented with 10%FBS. The day before treatment with compounds, cells were seeded at a density of 2000 or 5000 in each well of a 96-well plate. The tumour cells were then treated with 3-fold serial diluted compound or DMSO control in the incubator at 37 °C and 5% CO2 for 3 days, prior to the addition of CellTiter-Glo reagents (Promega) and reading of luminescence using a PerkinElmer Envision plate reader. Data were analysed using GraphPad Prism 7.0.

SKOV-3 = assay: Cell proliferation assay (CellTiter-Glo), SKOV-3; type: cell-based; settings: Homo sapiens, SK-OV-3; 72 h exposure; mean ± SD of two experiments
Method: as §1, §2

T47D = assay: Cell proliferation assay (CellTiter-Glo), T47D; type: cell-based; settings: Homo sapiens, 72 h exposure, mean ± SD of two experiments
Method: as §1, §2

MCF-7 = assay: Cell proliferation assay (CellTiter-Glo), MCF-7; type: cell-based; settings: Homo sapiens, MCF7; 72 h exposure; mean ± SD of two experiments
Method: as §1, §2

NCI-H1975 = assay: Cell proliferation assay (CellTiter-Glo), NCI-H1975; type: cell-based; settings: Homo sapiens, 72 h exposure, mean ± SD of two experiments
Method: as §1, §2

PI3Kα = target: T1, PI3Kα (Homo sapiens, UniProt P42336); assay: In vitro PI3Kα enzymatic assay (ADP-Glo / Kinase-Glo, ATP 25 μM); type: biochemical; settings: for IC50: mean ± SD of two experiments; for inhibition at 10 µM / % Inhibition at 10 μM: mean ± SD of three determinations
T1 construct: purchased Invitrogen
T1 sequence (P42336 whole entry): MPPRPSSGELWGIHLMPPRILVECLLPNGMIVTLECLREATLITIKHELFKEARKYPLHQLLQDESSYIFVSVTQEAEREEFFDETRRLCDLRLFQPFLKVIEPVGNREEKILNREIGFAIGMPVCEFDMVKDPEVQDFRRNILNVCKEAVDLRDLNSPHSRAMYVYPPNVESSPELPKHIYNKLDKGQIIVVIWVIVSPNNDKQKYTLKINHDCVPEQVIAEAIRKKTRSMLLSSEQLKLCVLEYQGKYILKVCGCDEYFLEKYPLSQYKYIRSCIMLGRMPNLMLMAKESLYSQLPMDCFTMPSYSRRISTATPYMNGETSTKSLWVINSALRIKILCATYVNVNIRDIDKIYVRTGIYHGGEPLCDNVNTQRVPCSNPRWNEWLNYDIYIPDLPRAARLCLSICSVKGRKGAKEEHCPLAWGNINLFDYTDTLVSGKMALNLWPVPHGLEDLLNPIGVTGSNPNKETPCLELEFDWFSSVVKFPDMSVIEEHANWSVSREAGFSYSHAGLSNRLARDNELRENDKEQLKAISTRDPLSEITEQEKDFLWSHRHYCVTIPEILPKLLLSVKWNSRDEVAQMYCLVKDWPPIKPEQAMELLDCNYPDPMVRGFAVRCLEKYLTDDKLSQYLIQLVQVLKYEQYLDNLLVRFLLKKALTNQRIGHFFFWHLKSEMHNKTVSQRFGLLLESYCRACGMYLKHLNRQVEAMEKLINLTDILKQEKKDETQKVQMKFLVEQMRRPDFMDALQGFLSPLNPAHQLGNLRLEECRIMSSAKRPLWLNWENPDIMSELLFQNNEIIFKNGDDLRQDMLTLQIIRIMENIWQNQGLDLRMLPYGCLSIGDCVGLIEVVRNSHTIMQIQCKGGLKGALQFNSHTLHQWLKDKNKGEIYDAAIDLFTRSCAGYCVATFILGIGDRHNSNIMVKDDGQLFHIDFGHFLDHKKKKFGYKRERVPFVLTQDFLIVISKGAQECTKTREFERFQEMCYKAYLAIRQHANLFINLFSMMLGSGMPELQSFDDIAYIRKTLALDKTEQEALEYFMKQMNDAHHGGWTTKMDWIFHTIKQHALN
T1 sequence (P27986 whole entry partner): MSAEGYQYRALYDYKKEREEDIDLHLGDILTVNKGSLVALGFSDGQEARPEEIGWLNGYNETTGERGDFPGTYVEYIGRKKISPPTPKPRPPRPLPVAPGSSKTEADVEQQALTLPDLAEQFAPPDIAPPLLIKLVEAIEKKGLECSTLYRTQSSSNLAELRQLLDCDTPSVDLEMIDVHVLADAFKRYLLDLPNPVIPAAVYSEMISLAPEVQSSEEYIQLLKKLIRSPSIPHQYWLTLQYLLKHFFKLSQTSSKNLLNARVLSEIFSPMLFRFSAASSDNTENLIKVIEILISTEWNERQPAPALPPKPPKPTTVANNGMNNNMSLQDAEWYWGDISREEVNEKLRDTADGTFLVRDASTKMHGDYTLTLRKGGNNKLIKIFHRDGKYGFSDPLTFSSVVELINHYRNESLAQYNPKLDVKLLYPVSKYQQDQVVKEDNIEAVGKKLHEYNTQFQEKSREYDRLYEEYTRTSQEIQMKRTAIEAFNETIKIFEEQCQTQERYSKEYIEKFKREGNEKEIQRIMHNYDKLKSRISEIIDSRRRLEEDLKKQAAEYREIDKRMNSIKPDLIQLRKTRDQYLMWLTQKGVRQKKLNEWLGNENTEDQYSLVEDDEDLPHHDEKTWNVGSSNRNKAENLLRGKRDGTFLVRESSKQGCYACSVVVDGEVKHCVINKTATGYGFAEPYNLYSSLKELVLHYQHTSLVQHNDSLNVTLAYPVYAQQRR
Method: To screen the inhibitory activity of the target compounds against PI3Kα, the Kinase-Glo™ assay with ATP at 25 μM was utilised with PIK-75 as positive control. We chose to explore the SARs at three positions on the Imidazo[1,2-a]pyridine core. To start with, a set of 8-position modifications were prepared while keeping the morpholinyl amide substituent on 2-position fixed, since it allowed quick structure − activity profiling via coupling reactions of bromide with aryl borates or boronic acids. […] We then turned our attention back to the phenyl substituents.
Briefly, the compound, PI3K enzyme (PI3Kα from Invitrogen), the PIP2 (Life Technologies) substrate, and ATP (25 μM, Sigma) were diluted in kinase buffer to the indicated concentrations. The assay plate was covered and incubated at room temperature for 1 h. Then, the Kinase-Glo reagent (Promega) was added to the PI3Kα plate to stop the reaction, mixed briefly with centrifuge, shaken slowly on the shaker and then equilibrate for 120 min. Finally, add Kinase detection reagent to each well, shake 1 min, equilibrate for 30 min before reading on a plate reader for luminescence. The data were collected on Envision and presented in Excel. IC50 values were calculated from the inhibition curves.

[1] = PI3Kα, compound 10 μM, ATP 25 μM, read-out: % Inhibition at 10 μM
[2] = PI3Kα, compound 10 μM, ATP 25 μM

Molecule | IC50 (NCI-H460) | IC50 (SKOV-3) | IC50 (T47D) | IC50 (MCF-7) | IC50 (NCI-H1975) | IC50 (PI3Kα; ATP 25 μM) | inhibition at 10 µM (PI3Kα; [1]) | inhibition at 10 µM (PI3Kα; read-out: % Inhibition at 10 μM, PI3Kα, compound 10 μM, ATP 25 μM) | % Inhibition at 10 μM (PI3Kα; [2])
Cc1nc(NC(=O)N2CCC[C@H]2C(N)=O)sc1-c1ccnc(C(C)(C)C(F)(F)F)c1 [Alpelisib, reference compound] | 8.9 ± 0.7 µM | 9.7 ± 0.7 µM | 0.46 ± 0.05 µM | 2.2 ± 0.3 µM | 2.7 ± 0.2 µM |  |  |  | 
COc1ncc(-c2cc(C)cn3cc(C(=O)N4CCCC4)nc23)cc1NS(=O)(=O)c1ccc(F)cc1F [Compound 36, 2,4-Difluoro-N-(2-methoxy-5–(6-methyl-2-(pyrrolidine-1-carbonyl)Imidazo[1,2-a]pyridin-8-yl)pyridin-3-yl)benzenesulfonamide] | 30.2 ± 3.1 µM | 35.3 ± 4.2 µM | 15.9 ± 1.5 µM | 8.1 ± 0.8 µM | > 50 µM | 1.12 ± 0.15 µM | > 85% |  | 
COc1ncc(-c2cc(C)cn3cc(C(=O)NCCN4CCOCC4)nc23)cc1NS(=O)(=O)c1ccc(F)cc1 [Compound 40, 8–(5-((4-Fluorophenyl)sulfonamido)-6-methoxypyridin-3-yl)-6-methyl-N-(2-morpholinoethyl)Imidazo[1,2-a]pyridine-2-carboxamide] | 21.8 ± 1.9 µM | 25.5 ± 3.9 µM | 12.5 ± 1.8 µM | 7.6 ± 0.5 µM | 41.4 ± 3.4 µM | 0.5 ± 0.11 µM | > 85% |  | 
Cc1ccc([N+](=O)[O-])cc1S(=O)(=O)N(C)/N=C/c1cnc2ccc(Br)cn12 [PIK-75, reference compound] |  |  |  |  |  |  |  | 98.2 ± 1.6% | 
(6-Methyl-8–(3-(morpholinosulfonyl)phenyl)Imidazo[1,2-a]pyridin-2-yl)(pyrrolidin-1-yl)methanone [Compound 27] |  |  |  |  |  |  |  |  | 60.9 ± 6.0%
N,N-Diethyl-3–(6-methyl-2-(morpholine-4-carbonyl)Imidazo[1,2-a]pyridin-8-yl)benzenesulfonamide [Compound 19] |  |  |  |  |  |  |  |  | 58.5 ± 1.6%
N,N-Diethyl-3–(6-methyl-2–(4-methylpiperidine-1-carbonyl)Imidazo[1,2-a]pyridin-8-yl)benzenesulfonamide [Compound 32] |  |  |  |  |  |  |  |  | 50.6 ± 0.9%
